System: Escherichia coli (ECO) isolates
Assay: MIC of compounds alone and combined with antibacterials, broth microdilution (CLSI)
Format: cell-based
Procedure, shortened: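 Broth microdilution in cation-adjusted Mueller-Hinton broth, inoculum 5.10^5 CFU/mL, 16-20 h at 35° C in ambient air, on genotyped isolates. Compound MIC, alone or with an antibacterial, taken visually as lowest concentration preventing growth; antibacterial MIC determined at each compound concentration.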

## C=CC1=C(C(=O)O)N2C(=O)[C@@H](NC(=O)/C(=N\OCC(=O)O)c3csc(N)n3)[C@H]2SC1 [FIX, Cefixime]
ECO UFR211, CLA @ 4 μg/mL
  MIC ATB in combination: 2 µg/mL
ECO UFR212, AF2 @ 8 μg/mL
  MIC ATB in combination: <0.25 µg/mL
ECO UFR212, AF3 @ 8 μg/mL
  MIC ATB in combination: <0.25 µg/mL
ECO UFR212, CLA @ 4 μg/mL
  MIC ATB in combination: >128 µg/mL
ECO URF20, AF2 @ 8 μg/mL
  MIC ATB in combination: <=0.25 μg/mL
ECO URF20, AF3 @ 8 μg/mL
  MIC ATB in combination: 2 µg/mL
ECO URF20, CLA @ 4 μg/mL
  MIC ATB in combination: >128 µg/mL
Strain ECO 4133, genotype TEM-30, OXA-1
  MIC: 0.5 µg/mL
Strain ECO 5302, genotype TEM-1, OXA-1
  MIC: 0.5 µg/mL
Strain ECO 131119, genotype TEM-1, OXA-48
  MIC: <=0.25 μg/mL
Strain ECO 180070, genotype TEM-1, CTX-M-15
  MIC: 128 µg/mL
Strain ECO 190314, genotype CTX-M-1
  MIC: 16 µg/mL
Strain ECO 190317, compound alone
  MIC: >128 µg/mL
Strain ECO 190317, genotype TEM-1, SHV-12, CTX-M-15, OXA-1
  MIC: >128 µg/mL
Strain ECO 190457, compound alone
  MIC: 128 µg/mL
Strain ECO 190457, genotype CTX-M-15, OXA-1
  MIC: 128 µg/mL
Strain ECO 190549, genotype CTX-M-1
  MIC: 16 µg/mL
Strain ECO 200159, genotype TEM-1, CTX-M-14
  MIC: 8 µg/mL
Strain ECO 200259, genotype CTX-M-14
  MIC: 8 µg/mL
Strain ECO 200344, genotype CTX-M-1
  MIC: 32 µg/mL
Strain ECO 260096, genotype CTX-M-132
  MIC: >128 µg/mL
Strain ECO 260304, genotype CTX-M-15
  MIC: 32 µg/mL
Strain ECO 260508, genotype TEM-1, CTX-M-15, OXA-1
  MIC: >128 µg/mL
Strain ECO RGN238, genotype OXA-1
  MIC: <=0.25 μg/mL
Strain ECO UFR15, genotype TEM-1, OXA-48
  MIC: 1 µg/mL
Strain ECO UFR16, compound alone
  MIC: >128 µg/mL
Strain ECO UFR16, genotype TEM-1, CTX-M-15, OXA-1, OXA-48
  MIC: >128 µg/mL
Strain ECO UFR17, genotype TEM-1, CTX-M-15, CMY-2, OXA-1, OXA-181
  MIC: >128 µg/mL
Strain ECO UFR18, genotype CTX-M-15, OXA-204
  MIC: >128 µg/mL
Strain ECO UFR19, genotype CTX-M-15, CMY-2, OXA-1, OXA-204
  MIC: >128 µg/mL
Strain ECO UFR20, compound alone
  MIC: 512 µg/mL
Strain ECO UFR20, genotype SHV-1, CTX-M-15, OXA-1, OXA-232
  MIC: 512 µg/mL
Strain ECO UFR32, genotype TEM-1, VEB-1, OXA-10
  MIC: 128 µg/mL
Strain ECO UFR39, genotype CTX-M-15, NDM-1
  MIC: >128 µg/mL
Strain ECO UFR41, genotype TEM-1, CTX-M-15, CMY-2, OXA-1, NDM-4
  MIC: >128 µg/mL
Strain ECO UFR45, genotype TEM-1, CMY-4, OXA-1, OXA-48, VIM-1
  MIC: >128 µg/mL
Strain ECO UFR52, genotype TEM-1, SHV-12, IMP-8
  MIC: >128 µg/mL
Strain ECO UFR61O, compound alone
  MIC: 32 µg/mL
Strain ECO UFR61O, genotype TEM-1, KPC-2
  MIC: 32 µg/mL
Strain ECO UFR62, genotype TEM-1, CTX-M-9, KPC-2
  MIC: 128 µg/mL
Strain ECO UFR74, genotype SHV-1, DHA-1
  MIC: >128 µg/mL
Strain ECO UFR86, genotype ompC-, ompF-
  MIC: 2 µg/mL
Strain ECO UFR174, genotype TEM-1, KPC-2, OXA-1
  MIC: 8 µg/mL
Strain ECO UFR175, genotype TEM-1, KPC-2, OXA-9
  MIC: 64 µg/mL
Strain ECO UFR176, genotype KPC-3, OXA-9*
  MIC: 64 µg/mL
Strain ECO UFR177, genotype TEM-1, CTX-M-15, OXA-1, OXA-2, NDM-1, RmtC, antibiotic alone
  MIC: >128 µg/mL
Strain ECO UFR177, with AF2 @ 8 μg/mL
  MIC ATB in combination: <=0.25 μg/mL
Strain ECO UFR177, with AF3 @ 8 μg/mL
  MIC ATB in combination: <0.25 µg/mL
Strain ECO UFR177, with CLA @ 4 μg/mL
  MIC ATB in combination: >128 µg/mL
Strain ECO UFR178, genotype TEM-1, CTX-M-15, OXA-9, NDM-1, antibiotic alone
  MIC: >128 µg/mL
Strain ECO UFR178, with AF2 @ 8 μg/mL
  MIC ATB in combination: <0.25 µg/mL
Strain ECO UFR178, with AF3 @ 8 μg/mL
  MIC ATB in combination: <0.25 µg/mL
Strain ECO UFR178, with CLA @ 4 μg/mL
  MIC ATB in combination: >128 µg/mL
Strain ECO UFR179, genotype TEM-1, SHV-12, CTX-M-15, NDM-1, antibiotic alone
  MIC: >128 µg/mL
Strain ECO UFR179, with AF2 @ 8 μg/mL
  MIC ATB in combination: <0.25 µg/mL
Strain ECO UFR179, with AF3 @ 8 μg/mL
  MIC ATB in combination: <0.25 µg/mL
Strain ECO UFR179, with CLA @ 4 μg/mL
  MIC ATB in combination: >128 µg/mL
Strain ECO UFR180, genotype TEM-1, CMY-30, OXA-1, NDM-1, antibiotic alone
  MIC: >128 µg/mL
Strain ECO UFR180, with AF2 @ 8 μg/mL
  MIC ATB in combination: <0.25 µg/mL
Strain ECO UFR180, with AF3 @ 8 μg/mL
  MIC ATB in combination: <0.25 µg/mL
Strain ECO UFR180, with CLA @ 4 μg/mL
  MIC ATB in combination: >128 µg/mL
Strain ECO UFR181, genotype TEM-1, CTX-M-15, NDM-5, antibiotic alone
  MIC: >128 µg/mL
Strain ECO UFR181, with AF2 @ 8 μg/mL
  MIC ATB in combination: <=0.25 μg/mL
Strain ECO UFR181, with AF3 @ 8 μg/mL
  MIC ATB in combination: >128 µg/mL
Strain ECO UFR181, with CLA @ 4 μg/mL
  MIC ATB in combination: >128 µg/mL
Strain ECO UFR182, genotype CTX-M-15, OXA-1, NDM-6, antibiotic alone
  MIC: >128 µg/mL
Strain ECO UFR182, with AF2 @ 8 μg/mL
  MIC ATB in combination: <0.25 µg/mL
Strain ECO UFR182, with AF3 @ 8 μg/mL
  MIC ATB in combination: <0.25 µg/mL
Strain ECO UFR182, with CLA @ 4 μg/mL
  MIC ATB in combination: >128 µg/mL
Strain ECO UFR183, genotype CTX-M-15, OXA-1, NDM-7, antibiotic alone
  MIC: >128 µg/mL
Strain ECO UFR183, with AF2 @ 8 μg/mL
  MIC ATB in combination: >128 µg/mL
Strain ECO UFR183, with AF3 @ 8 μg/mL
  MIC ATB in combination: >128 µg/mL
Strain ECO UFR183, with CLA @ 4 μg/mL
  MIC ATB in combination: >128 µg/mL
Strain ECO UFR184, genotype CTX-M-15, CMY-4, OXA-1, OXA-204
  MIC: >128 µg/mL
Strain ECO UFR185, genotype OXA-48
  MIC: >128 µg/mL
Strain ECO UFR186, genotype TEM-1, CTX-M-14, OXA-48
  MIC: 32 µg/mL
Strain ECO UFR186, with AF2 @ 8 μg/mL
  MIC ATB in combination: <0.25 µg/mL
Strain ECO UFR186, with AF3 @ 8 μg/mL
  MIC ATB in combination: <0.25 µg/mL
Strain ECO UFR186, with CLA @ 4 μg/mL
  MIC ATB in combination: 8 µg/mL
Strain ECO UFR187, genotype CTX-M-15, OXA-48
  MIC: 32 µg/mL
Strain ECO UFR187, with AF2 @ 8 μg/mL
  MIC ATB in combination: <=0.25 μg/mL
Strain ECO UFR187, with AF3 @ 8 μg/mL
  MIC ATB in combination: 0.5 µg/mL
Strain ECO UFR187, with CLA @ 4 μg/mL
  MIC ATB in combination: 2 µg/mL
Strain ECO UFR189, genotype TEM-1, CTX-M-15, OXA-48
  MIC: >128 µg/mL
Strain ECO UFR189, with AF2 @ 8 μg/mL
  MIC ATB in combination: <0.25 µg/mL
Strain ECO UFR189, with AF3 @ 8 μg/mL
  MIC ATB in combination: <0.25 µg/mL
Strain ECO UFR189, with CLA @ 4 μg/mL
  MIC ATB in combination: 4 µg/mL
Strain ECO UFR190, genotype CTX-M-24, OXA-48
  MIC: 64 µg/mL
Strain ECO UFR190, with AF2 @ 8 μg/mL
  MIC ATB in combination: <0.25 µg/mL
Strain ECO UFR190, with AF3 @ 8 μg/mL
  MIC ATB in combination: <0.25 µg/mL
Strain ECO UFR190, with CLA @ 4 μg/mL
  MIC ATB in combination: 8 µg/mL
Strain ECO UFR191, genotype TEM-1, CTX-M-24, OXA-48
  MIC: >128 µg/mL
Strain ECO UFR191, with AF2 @ 8 μg/mL
  MIC ATB in combination: <0.25 µg/mL
Strain ECO UFR191, with AF3 @ 8 μg/mL
  MIC ATB in combination: <0.25 µg/mL
Strain ECO UFR191, with CLA @ 4 μg/mL
  MIC ATB in combination: 4 µg/mL
Strain ECO UFR204, genotype TEM-1, CMY-4, OXA-48, VIM-1, antibiotic alone
  MIC: >128 µg/mL
Strain ECO UFR204, with AF2 @ 8 μg/mL
  MIC ATB in combination: <0.25 µg/mL
Strain ECO UFR204, with AF3 @ 8 μg/mL
  MIC ATB in combination: <0.25 µg/mL
Strain ECO UFR204, with CLA @ 4 μg/mL
  MIC ATB in combination: >128 µg/mL
Strain ECO UFR205, genotype CTX-M-15, VIM-4, antibiotic alone
  MIC: >128 µg/mL
Strain ECO UFR205, with AF2 @ 8 μg/mL
  MIC ATB in combination: <=0.25 μg/mL
Strain ECO UFR205, with AF3 @ 8 μg/mL
  MIC ATB in combination: <=0.25 μg/mL
Strain ECO UFR205, with CLA @ 4 μg/mL
  MIC ATB in combination: >128 µg/mL
Strain ECO UFR206, genotype TEM-1, CTX-M-15, OXA-1, VIM-4, antibiotic alone
  MIC: >128 µg/mL
Strain ECO UFR206, with AF2 @ 8 μg/mL
  MIC ATB in combination: >128 µg/mL
Strain ECO UFR206, with AF3 @ 8 μg/mL
  MIC ATB in combination: >128 µg/mL
Strain ECO UFR206, with CLA @ 4 μg/mL
  MIC ATB in combination: >128 µg/mL
Strain ECO UFR207, genotype CTX-M-15
  MIC: >128 µg/mL
Strain ECO UFR208, genotype SHV-12
  MIC: >128 µg/mL
Strain ECO UFR209, compound alone
  MIC: 1024 µg/mL
Strain ECO UFR209, genotype TEM-1, CTX-M-15
  MIC: 1024 µg/mL
Strain ECO UFR210, genotype SHV-12
  MIC: 32 µg/mL
Strain ECO UFR211, genotype TEM-24
  MIC: >128 µg/mL
Strain ECO UFR212, genotype CMY-2
  MIC: >128 µg/mL
Strain ECO UFR218, genotype TEM-1, SHV-1, CTX-M-15
  MIC: >128 µg/mL
Strain ECO UFR252GO, genotype VIM-2, antibiotic alone
  MIC: >128 µg/mL
Strain ECO UFR252GO, with AF2 @ 8 μg/mL
  MIC ATB in combination: <0.25 µg/mL
Strain ECO UFR252GO, with AF3 @ 8 μg/mL
  MIC ATB in combination: <0.25 µg/mL
Strain ECO UFR252GO, with CLA @ 4 μg/mL
  MIC ATB in combination: >128 µg/mL
Strain ECO UFR255, genotype NDM-1, antibiotic alone
  MIC: >128 µg/mL
Strain ECO UFR255, with AF2 @ 8 μg/mL
  MIC ATB in combination: <0.25 µg/mL
Strain ECO UFR255, with AF3 @ 8 μg/mL
  MIC ATB in combination: <0.25 µg/mL
Strain ECO UFR255, with CLA @ 4 μg/mL
  MIC ATB in combination: >128 µg/mL

Reference: patent US20200017495A1, “NOVEL HETEROCYCLIC COMPOUNDS AND THEIR USE IN PREVENTING OR TREATING BACTERIAL INFECTIONS” (priority 2017, published 2020)
